Data published in patent US9879023B2, “Therapeutic compounds” (Gilead Sciences, Inc., priority 2011, dated 2018).

System: HIV-IIIb (MT-4 cells)
Test: Test A: Antiviral Assays in MT4 Cells
Assay type: cell-based
Conditions: Human immunodeficiency virus 1, IIIB, MT4, 120 h, MT-4 cells infected with HIV-IIIb (0.004 m.o.i.), 5 days incubation, CellTiter-Glo readout; read-out: EC50
Procedure: Test A: Antiviral Assays in MT4 Cells
For the antiviral assay utilizing MT-4 cells, 0.4 μL of […] test concentration of 3-fold serially diluted compound in DMSO was added to 40 μL of cell growth medium (RPMI 1640, 10% FBS, 1% penicilline/Streptomycine, 1% L-Glutamine, 1% HEPES) in each well of 384-well assay plates (10 concentrations) in quadruplicate.
1 mL aliquots of 2×10e6 MT-4 cells are pre-infected for 1 and 3 hrs respectively, @37° C. with 25 uL (MT4) or of either cell growth medium (mock-infected) or a fresh 1:250 dilution of an HIV-IIIb concentrated ABI stock (0.004 m.o.i. for MT4 cells). Infected and uninfected cells are diluted in cell growth medium and 35 uL of 2000 (for MT4) cells is added to each well of the assay plates.
Assay plates were then incubated in a 37° C. incubator. After 5 days of incubation, 25 μl of 2× concentrated CellTiter-Glo™ Reagent (catalog # G7573, Promega Biosciences, Inc., Madison, Wis.) was added to each well of the assay plate. Cell lysis was carried out by incubating at room temperature for 2-3 min and then chemiluminescence was read using the Envision reader (PerkinElmer). […]

Structure (SMILES)	EC50 [nM]
Cc1cc2nc(C3CC3)sc2c(-c2ccc3c4c(ccnc24)CCO3)c1[C@H](OC(C)(C)C)C(=O)O [Compound 22, (S)-2-tert-butoxy-2-((R)-2-cyclopropyl-7-(2,3-dihydropyrano[4,3,2-de]quinolin-7-yl)-5-methylbenzo[d]thiazol-6-yl)acetic acid]	170
Cc1cc2nc(N(C)C)sc2c(-c2ccc(Cl)cc2)c1[C@H](OC(C)(C)C)C(=O)O [Compound 12]	113
CC(=O)Nc1nc2cc(C)c([C@H](OC(C)(C)C)C(=O)O)c(-c3ccc4c5c(ccnc35)CCO4)c2s1 (atropisomer, axis not shown) [Compound 93, (S)-2-((S)-2-acetamido-7-(2,3-dihydropyrano[4,3,2-de]quinolin-7-yl)-5-methylbenzo[d]thiazol-6-yl)-2-tert-butoxyacetic acid]	1420
COc1ccc(CNC(=O)c2nc3cc(C)c([C@H](OC(C)(C)C)C(=O)O)c(-c4ccc5c6c(ccnc46)CCO5)c3s2)cc1 (atropisomer, axis not shown) [Compound 99, (S)-2-tert-butoxy-2-((S)-7-(2,3-dihydropyrano[4,3,2-de]quinolin-7-yl)-2-(4-methoxybenzylcarbamoyl)-5-methylbenzo[d]thiazol-6-yl)acetic acid]	560
Cc1cc2nc(C(=O)NCCc3ccccc3)sc2c(-c2ccc3c4c(ccnc24)CCO3)c1[C@H](OC(C)(C)C)C(=O)O (atropisomer, axis not shown) [Compound 98, (S)-2-tert-butoxy-2-((S)-7-(2,3-dihydropyrano[4,3,2-de]quinolin-7-yl)-5-methyl-2-(phenethylcarbamoyl)benzo[d]thiazol-6-yl)acetic acid]	2510
Cc1cc2c(sc(=O)n2C)c(-c2ccc3c4c(ccnc24)CCO3)c1[C@H](OC(C)(C)C)C(=O)O (atropisomer, axis not shown) [Compound 68, (S)-2-tert-butoxy-2-((S)-7-(2,3-dihydropyrano[4,3,2-de]quinolin-7-yl)-3,5-dimethyl-2-oxo-2,3-dihydrobenzo[d]thiazol-6-yl)acetic acid]	292
Cc1cc2nc(C(=O)O)sc2c(-c2ccc3c4c(ccnc24)CCO3)c1[C@H](OC(C)(C)C)C(=O)O (atropisomer, axis not shown) [Compound 41]	923
